Data set [1] in a line: Small scale dissolution test in FaSSIF (Test example 2). The note with it: 37° C., paddle 50 rpm.

SMILES strings stand for the structures. Where a name gives a salt, the structure may show the parent alone.

On to `CCc1cc2c(cc1N1CCC(N3CCOCC3)CC1)C(C)(C)c1[nH]c3cc(C#N)ccc3c1C2=O` [9-ethyl-6,6-dimethyl-8-(4-morpholin-4-yl-piperidin-1-yl)-11-oxo-6,11-dihydro-5H-benzo[b]carbazole-3-carbonitrile monohydrochloride salt], for which the “solubility of the Compound F6-20 hydrochloride salt crystal” value in data set [1] (5 to 240 min, results in figures, stated in words) was “improved by addition of SLS and poly(sodium 4-styrene sulfonate)”. Besides, the “initial solubility of the Compound F6-20 hydrochloride salt crystal” value in data set [1] (early phase, stated in words (FIG. 26)) is “improved by addition of polyoxyethylene (105) polyoxypropylene (5) glycol”. Consider `CC1(C)c2cc(C3CCN(C4COC4)CC3)ccc2C(=O)c2c1[nH]c1cc(C#N)ccc21` [Comparative example 4, 6,6-Dimethyl-8-(1-oxetan-3-yl-piperidin-4-yl)-11-oxo-6,11-dihydro-5H-benzo[b]carbazole-3-carbonitrile], for which the “Dissolved concentration after 10 min” value was 8.3 ± 1.5 µg/mL and the “Dissolved concentration after 240 min” value was determined as 3.8 ± 2.6 µg/mL. As for `CC1(C)c2cc(N3CCN(C4COC4)CC3)c(Br)cc2C(=O)c2c1[nH]c1cc(C#N)ccc21` [Comparative example 5, 9-Bromo-6,6-dimethyl-8-(4-oxetan-3-yl-piperazin-1-yl)-11-oxo-6,11-dihydro-5H-benzo[b]carbazole-3-carbonitrile], the “Dissolved concentration after 10 min” value stood at 4.4 ± 0.4 µg/mL and the “Dissolved concentration after 240 min” value was determined as 4.8 ± 0.3 µg/mL. For the molecule `CC1(C)c2cc(N3CCN(C4CC4)CC3)c(Br)cc2C(=O)c2c1[nH]c1cc(C#N)ccc21` [Comparative example 6, 9-Bromo-8-(4-cyclopropyl-piperazin-1-yl)-6,6-dimethyl-11-oxo-6,11-dihydro-5H-benzo[b]carbazole-3-carbonitrile], the “Dissolved concentration after 10 min” value was found to be 18.2 ± 0.1 µg/mL and the “Dissolved concentration after 240 min” value turned out to be 3.7 ± 0.5 µg/mL. Consider `CCc1cc2c(cc1N1CCN(C3COC3)CC1)C(C)(C)c1[nH]c3cc(C#N)ccc3c1C2=O` [Comparative example 7, 9-Ethyl-6,6-dimethyl-8-(4-oxetan-3-yl-piperazin-1-yl)-11-oxo-6,11-dihydro-5H-benzo[b]carbazole-3-carbonitrile], for which the “Dissolved concentration after 10 min” value was found to be 0.4 ± 0.2 µg/mL and the “Dissolved concentration after 240 min” value is 0.4 ± 0.4 µg/mL. `CCc1cc2c(cc1N1CCC(N3CCOCC3)CC1)C(C)(C)c1[nH]c3cc(C#N)ccc3c1C2=O` [Compound F6-20 mesylate salt, 9-Ethyl-6,6-dimethyl-8-(4-morpholin-4-yl-piperidin-1-yl)-11-oxo-6,11-dihydro-5H-benzo[b]carbazole-3-carbonitrile]: the “solubility of the Compound F6-20 mesylate salt crystal” value in data set [1] (5 to 240 min, versus Comparative example 3, stated in words) is “improved in accordance with the additive amount of sodium lauryl sulfate”.

Values taken from patent US20250114327A1, “COMPOSITION COMPRISING TETRACYCLIC COMPOUND” (CHUGAI SEIYAKU KABUSHIKI KAISHA, priority 2010, published 2025).
